Data: patent US20050266498A1, “Method for screening biomolecule activity regulator” (priority 1999, published 2005)
Like-named read-outs stand apart in the source and are kept apart here. Ends that are not written are not given here.

Assays:
NS3 protease (MBP-NS34a) = molecular target: T1, NS3 protease (MBP-NS34a) (Hepatitis C virus genotype 1b, UniProt P26662); assay: NS3 protease inhibitory activity test using substrate cleavage reaction as index; type: biochemical, human hepatitis C virus
T1 construct: (including 979th to 1710th amino acids); made in house; host or cells: Escherichia coli XL2-Blue
T1 sequence (P26662 979-1710): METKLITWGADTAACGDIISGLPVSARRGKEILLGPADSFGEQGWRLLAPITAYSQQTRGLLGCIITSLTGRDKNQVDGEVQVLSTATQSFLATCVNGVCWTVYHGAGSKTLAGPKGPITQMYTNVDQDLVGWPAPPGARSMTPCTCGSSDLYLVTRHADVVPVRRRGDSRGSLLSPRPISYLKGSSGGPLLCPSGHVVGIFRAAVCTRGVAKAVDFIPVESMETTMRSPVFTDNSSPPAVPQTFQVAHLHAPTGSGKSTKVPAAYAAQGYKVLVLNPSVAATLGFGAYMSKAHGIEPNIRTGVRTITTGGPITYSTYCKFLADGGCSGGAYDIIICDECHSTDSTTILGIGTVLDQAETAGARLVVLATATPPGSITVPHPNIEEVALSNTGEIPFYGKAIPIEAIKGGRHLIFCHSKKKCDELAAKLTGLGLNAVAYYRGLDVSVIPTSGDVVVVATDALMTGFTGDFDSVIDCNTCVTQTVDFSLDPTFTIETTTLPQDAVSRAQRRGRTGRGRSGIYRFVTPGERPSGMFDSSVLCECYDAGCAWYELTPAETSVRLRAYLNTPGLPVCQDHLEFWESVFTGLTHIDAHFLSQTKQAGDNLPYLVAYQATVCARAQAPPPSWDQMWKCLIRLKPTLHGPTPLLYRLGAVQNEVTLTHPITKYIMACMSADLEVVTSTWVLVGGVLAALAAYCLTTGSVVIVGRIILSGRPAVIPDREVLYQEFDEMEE
Protocol: An NS3 protease cleavage sequence between NS5a and NS5b in the HCV polypeptide was synthesized. The protease inhibitory ability of each of the synthetic peptides was examined according to the method of Kakiuchi et al., in which a synthetic substrate having an amino terminus labeled with a dansyl group was reacted in the presence of a protease and a cleavage degree is measured by reverse phase HPLC (Biochem. Diophys. Res. Commun., 210, 1059, 1995). 1 μg of the purified MBP-NS34a and a reaction mixture (50 mM Tris-HCl (pH 7.5), 30 mM NaCl, 5 MM MgCl2 and 10 mM DTT) containing an evaluation sample prepared at an appropriate concentration were incubated at 25° C. for 15 minutes. To the solution, the synthesized substrate was added at a final concentration of 50 μM, and the mixture was allowed to react at 37° C. for 1 to 3 hours. Subsequently, the enzymatic reaction was stopped by adding a reaction-stopping solution (20% acetonitrile, 0.1% TFA) in a volume 9 times as much as the reaction volume. Then, the cleavaged peak of the synthesized substrate was detected (excited at 340 nm and measured at 510 nm) by a reverse phase column (YMC-AM-302) to calculate the cleavage rate when the inhibitor was added. Further, a value obtained by dividing this cleavage rate when the inhibitor was added by the cleavage rate when no inhibitor was added, was subtracted from 1 and then multiplied by 100. The obtained value was used as the inhibition rate (%) of the evaluated drug. In the above method, the peptide concentration inhibiting 50% of the protease activity (IC50) was calculated (Table 2).

MBP-NS34a [1] = molecular target: T2, MBP-NS34a (Hepatitis C virus genotype 1b, UniProt P26662); assay: Phage ELISA: inhibition of binding of phage peptide and MBP-NS34a by library compounds; design: species or system human hepatitis C virus; details: for effect on binding of various phages to NS34a (figure legend): FIG. 3: clones other than phage peptide K13, FIG. 4: any clone; for inhibition of the binding of the MBP-NS34a and the phage peptide: compound serially diluted, OD 405 nm (FIG. 3, FIG. 4)
T2 construct: (including 979th to 1710th amino acids); made in house; host or cells: Escherichia coli XL2-Blue
T2 sequence (P26662 979-1710): as above
Protocol: A binding inhibitor was screened by using the above phage ELISA system. As peptides used for screening, the phage peptides whose protease inhibitory activity was confirmed by using the synthetic peptides were prepared in an amount required for screening according to the method of Example 2 <3>. Each well of a 96-well microtiter plate was coated by using 50 μl of the MBP-NS34a protein solution prepared at 10 μg/ml. The plate was blocked by using 100 μl of 0.5% BSA solution prepared with 10 mM NaHCO3 and rinsed once with 200 μl of TBS buffer for each well. A mixed solution of a compound in a chemical library (synthesized in our company) diluted to an appropriate concentration and each phage prepared as described above was prepared, and the mixture was added to each well coated with the MBP-NS34a protein in an amount of 100 μl and incubated overnight at 4° C. Each well was washed with 200 μl of TBS buffer four times. Then, 50 μl of horseradish peroxidase (HRP)-conjugated sheep anti-M13 phage diluted 2000 times with 5% skim milk was introduced into each well and incubated at room temperature for 1 hour.
Each well was washed with 200 μl of TBS containing 0.5% Tween-20, five times. Then, 100 μl of ABTS solution was added thereto and further incubated at room temperature. The optical density at 405 nm was measured by using a 96-well plate reader (BIO-RAD). There was selected Compound HCP1271 (Compound 5 described in Japanese Patent Laid-Open (KOKAI) No. 2000-7645), in the presence of which the optical density by binding of the MBP-NS34a and the phage peptide was lower than the optical density observed in the absence of the compound. Further, this inhibitory compound was serially diluted and its influence on the binding of 5 kinds of other phage peptides, which inhibited the NS3 protease activity, was similarly determined by the phage ELISA method. […] Further, since a compound HCP1231 similar to HCP1271, was retrieved by the search of the chemical library, its NS3 protease activity inhibitory ability and influence on the binding of the phage peptide and the NS3 protease were examined. […] That is, it was shown that the compound obtained from screening of the inhibitor for binding of the phage peptide and the protease protein could inhibit the protease activity very well.

MBP-NS34a [2] = molecular target: T2, MBP-NS34a; assay: Phage ELISA: inhibition of binding of phage peptide and MBP-NS34a by NS4a peptide 4A18-40; design: species or system human hepatitis C virus; details: 4A18-40 peptide in 10-fold and 20-fold molar excess (FIG. 2)
Text: A possibility that an action site of each phage peptide clone obtained as described above and that of the NS4a peptide derived from virus known to be activated by the binding to the NS3 protein were identical or overlapped was examined. A partial peptide of the NS4a peptide composed of the 18th to 40th residues from the amino terminus (referred to as 4A18-40 peptide) is known as a minimal region required to enhance the NS3 protease activity (Tanji et al., J. Virol., 69, 4017-4026, 1995). Accordingly, an influence on the binding of each phage peptide and the MBP-NS34a protein was analyzed by the phage ELISA method using a chemically synthesized 4A18-40 peptide ([…], SEQ ID NO; 19). 10 μg/ml of the MBP-NS34a protein to which the 4A18-40 peptide was added in an amount of 10 or 20 times in excess in a molar ratio was immobilized on each well of a 96-well microtiter plate. The plate was blocked by using 100 μl of 0.5% BSA solution prepared with 10 mM NaHCO3, and rinsed once with 200 μl of TBS buffer. […]
Each well was washed with 200 μl of TBS containing 0.5% Tween 20 five times. […] The optical density at 405 nm was measured by a 96-well plate reader (BIO-RAD). The optical density due to binding of the MBP-NS34a and the phage peptide observed in the presence of the NS4a peptide was measured.

Row | Molecule | effect on binding of various phages to NS34a (figure legend) (MBP-NS34a [1]) | inhibition of the binding of the MBP-NS34a and the phage peptide (MBP-NS34a [1]) | IC50 (NS3 protease (MBP-NS34a)) [µM] | further results
1 | CCCCCCNC(=O)c1cc(Cl)ccc1NS(=O)(=O)c1ccc(Cl)cc1 [HCP1231] | Binding of any clone was not inhibited | scarcely inhibited the binding |  | NS3 protease activity inhibitory ability (in words) (NS3 protease (MBP-NS34a)): very weak protease activity inhibitory activity
2 | O=C(Nc1ccc(Oc2c(Cl)cc(Cl)cc2Cl)cc1)c1cc(Cl)ccc1NS(=O)(=O)c1ccc2ccccc2c1 [HCP1271] | inhibited in a concentration-dependent manner | concentration-dependently inhibited the binding |  | IC50 (NS3 protease (MBP-NS34a); method of Example 3 <1>, read-out: NS3 protease activity IC50 value): 2.2 µM
3 | IWHFSFMWI [Clone K1, IWHFSFMWI] |  |  | 15 | 
4 | LTTGSVVIVGRIILSGRPAVVPD [4A18-40 peptide] |  |  |  | inhibition of binding of phage clone K13 to the MBP-NS34a protein (MBP-NS34a [2]): increasingly inhibited; inhibition of binding of phage clone K13 to the MBP-NS34a protein (MBP-NS34a [2]; listed as NS4a peptide): inhibited the binding in a concentration-dependent manner
5 | WVFFWLSRP [Clone J95, WVFFWLSRP] |  |  | 15 | 
